Measured values published in ChEMBL document CHEMBL4680185, “Discovery of novel cyclin-dependent kinase (CDK) and histone deacetylase (HDAC) dual inhibitors with potent in vitro and in vivo anticancer activity” (Eur J Med Chem, 2020).

Columns and labels:
Test in all cases: cells
NCI-H460 [1] = assay type: functional; conditions: Homo sapiens, time 72 hrs, read-out: GI
HCT-116 [2] = assay type: functional; conditions: Homo sapiens, time 72 hrs, read-out: GI
HCT-116 [3] = assay type: functional; conditions: Homo sapiens, time 72 hrs, read-out: GI; remark: listed apart in the source
NCI-H460 [4] = assay type: functional; conditions: Homo sapiens, time 72 hrs, read-out: GI; remark: listed apart in the source
SMMC-7721 = assay type: functional, cell-based; conditions: Homo sapiens, SMMC-7721, 72 h
Description: Antiproliferative activity against human SMMC7721 cells assessed as inhibition of cell growth incubated for 72 hrs by CCK-8 assay

NCI-H460 [5] = assay type: functional, cell-based; conditions: Homo sapiens, NCI-H460, 72 h
Description: Antiproliferative activity against human H460 cells assessed as inhibition of cell growth incubated for 72 hrs by CCK-8 assay

HCT-116 [6] = assay type: functional, cell-based; conditions: Homo sapiens, HCT-116, 72 h
Description: Antiproliferative activity against human HCT116 cells assessed as inhibition of cell growth incubated for 72 hrs by CCK-8 assay

HeLa = assay type: functional, cell-based; conditions: Homo sapiens, 72 h
Description: Antiproliferative activity against human Hela cells assessed as inhibition of cell growth incubated for 72 hrs by CCK-8 assay

A-375 = assay type: functional, cell-based; conditions: Homo sapiens, A-375, 72 h
Description: Antiproliferative activity against human A375 cells assessed as inhibition of cell growth incubated for 72 hrs by CCK-8 assay

Compound	inhibition of growth at 2 µM (NCI-H460 [1]) [%]	inhibition of growth at 2 µM (HCT-116 [2]) [%]	inhibition of growth at 8 µM (HCT-116 [3]) [%]	inhibition of growth at 8 µM (NCI-H460 [4]) [%]	IC50 (SMMC-7721) [µM]	IC50 (NCI-H460 [5]) [µM]	IC50 (HCT-116 [6]) [µM]	IC50 (HeLa) [µM]	IC50 (A-375) [µM]
O=C(Cc1ccc(NC(=O)c2n[nH]cc2NC(=O)c2ccccc2)cc1)NO	11.8	9.56	14.2	23.1	–	–	–	–	–
O=C(Cc1ccc(NC(=O)c2n[nH]cc2NC(=O)c2ccccc2Cl)cc1)NO	9.04	0.84	4.52	26.6	–	–	–	–	–
O=C(NO)c1ccc(CNC(=O)c2n[nH]cc2NC(=O)c2c(F)cccc2F)cc1	0.46	25	64.5	7.33	–	–	–	–	–
Nc1ccccc1NC(=O)c1ccc(CNC(=O)c2n[nH]cc2NC(=O)c2ccccc2)cc1	11.8	62.9	88.6	61.7	6.62	6.32	1.66	4.06	1.59
O=C(NO)c1ccc(CNC(=O)c2n[nH]cc2NC(=O)c2ccccc2Cl)cc1	26.6	53.8	71.6	29.8	21.8	6.17	2.4	16.2	6.42
COc1ccccc1C(=O)Nc1c[nH]nc1C(=O)Nc1ccc(CC(=O)NO)cc1	1.58	9.38	24.5	24.2	–	–	–	–	–
Nc1ccccc1NC(=O)Cc1ccc(NC(=O)c2n[nH]cc2NC(=O)c2c(F)cccc2Cl)cc1	16.4	60.4	74.3	75.1	14.4	5.34	2.57	4.3	2.89
Nc1ccccc1NC(=O)Cc1ccc(NC(=O)c2n[nH]cc2NC(=O)c2ccccc2)cc1	0.37	60	69.2	8.93	–	–	–	–	–
O=C(NO)c1ccc(CNC(=O)c2n[nH]cc2NC(=O)c2ccccc2F)cc1	23.5	51	77	57.1	16.7	23.7	2.2	6.61	3.01
O=C(CCCNC(=O)c1n[nH]cc1NC(=O)c1c(F)cccc1F)NO	13	0.91	6.54	25.3	–	–	–	–	–
O=C(CCCCCNC(=O)c1n[nH]cc1NC(=O)c1c(F)cccc1F)NO	22.9	4.87	59.4	28.8	–	–	–	–	–
O=C(CCCCCCNC(=O)c1n[nH]cc1NC(=O)c1c(Cl)cccc1Cl)NO	17	1.07	20.1	17.9	–	–	–	–	–
O=C(NO)c1ccc(CNC(=O)c2n[nH]cc2NC(=O)c2ccccc2)cc1	12	29.4	61.7	31.6	–	–	–	–	–
O=C(Cc1ccc(NC(=O)c2n[nH]cc2NC(=O)c2c(F)cccc2Cl)cc1)NO	12.5	21.7	44.9	37	–	–	–	–	–
COc1ccccc1C(=O)Nc1c[nH]nc1C(=O)Nc1ccc(CC(=O)Nc2ccccc2N)cc1	3.12	13.6	30.5	26.8	–	–	–	–	–
O=C(Cc1ccc(NC(=O)c2n[nH]cc2NC(=O)c2c(Cl)cccc2Cl)cc1)NO	10.5	62.1	75.8	75.1	12.3	6.88	2.4	7.15	4.61
O=C(Cc1ccc(NC(=O)c2n[nH]cc2NC(=O)c2ccccc2F)cc1)NO	9.5	1.04	14.3	21.4	–	–	–	–	–
Nc1ccccc1NC(=O)c1ccc(CNC(=O)c2n[nH]cc2NC(=O)c2ccccc2Cl)cc1	5.54	63.7	84.4	17.4	12.9	6.36	0.9	10.5	2.11
Nc1ccccc1NC(=O)c1ccc(CNC(=O)c2n[nH]cc2NC(=O)c2c(F)cccc2Cl)cc1	50.1	78.7	83.8	75	16.3	3.63	0.7	3.27	1.2
O=C(CCCCCNC(=O)c1n[nH]cc1NC(=O)c1c(Cl)cccc1Cl)NO	15.1	3.02	4.66	21.3	–	–	–	–	–
COc1ccccc1C(=O)Nc1c[nH]nc1C(=O)NCc1ccc(C(=O)Nc2ccccc2N)cc1	5.73	23.5	75.4	45.5	8.32	7.35	3.68	8.13	2.66
Nc1ccccc1NC(=O)Cc1ccc(NC(=O)c2n[nH]cc2NC(=O)c2ccccc2Cl)cc1	3.08	29.2	52	27.8	–	–	–	–	–
O=C(NO)c1ccc(CNC(=O)c2n[nH]cc2NC(=O)c2c(Cl)cccc2Cl)cc1	45.4	68.7	81.9	57.4	14.6	10.6	0.5	4.84	5.05
O=C(NO)c1ccc(CNC(=O)c2n[nH]cc2NC(=O)c2c(F)cccc2Cl)cc1	–	–	59.3	27.7	–	–	–	–	–
O=C(CCCCCCNC(=O)c1n[nH]cc1NC(=O)c1c(F)cccc1F)NO	3.57	12.1	13.8	6.84	–	–	–	–	–
O=C(CCCCCCNC(=O)c1n[nH]cc1NC(=O)c1c(F)cccc1Cl)NO	0.88	10	15.7	28.7	–	–	–	–	–
O=C(CCCCNC(=O)c1n[nH]cc1NC(=O)c1c(F)cccc1F)NO	0.4	5.76	14.9	15.8	–	–	–	–	–
Nc1ccccc1NC(=O)Cc1ccc(NC(=O)c2n[nH]cc2NC(=O)c2ccccc2F)cc1	6.06	16.5	20.4	23.4	–	–	–	–	–
O=C(Cc1ccc(NC(=O)c2n[nH]cc2NC(=O)c2c(F)cccc2F)cc1)NO	0.04	29.9	25.6	30.2	–	–	–	–	–
COc1ccccc1C(=O)Nc1c[nH]nc1C(=O)NCc1ccc(C(=O)NO)cc1	16	43.8	68.8	45.6	–	–	–	–	–
